These results are taken from the NIST ThermoML archive (doi:10.1016/j.fluid.2012.11.007).

The conditions of data set [1]: Crystal; DTA.
Data set [2] is described as follows: Molar enthalpy of transition or fusion. Conditions: Crystal; DSC.

Where “and” joins values, the source holds several entries; their conditions need not be identical. Equal values may be shown once. Numbers after ± are expanded uncertainties.

Consider `CCCCn1cc[n+](C)c1.[Cl-]` [1-butyl-3-methylimidazolium chloride], for which the Normal melting temperature in data set [1] was 69.80 ± 0.5 °C. In addition, in data set [2], the “Molar enthalpy of transition or fusion” value was 6.1 kcal/mol and 6.02 kcal/mol.

As for `CCn1cc[n+](C)c1.[Cl-]` [1-ethyl-3-methylimidazolium chloride], the Normal melting temperature in data set [1] was found to be 88.60 ± 0.5 °C. Moreover, the “Molar enthalpy of transition or fusion” value in data set [2] was 3.67 ± 0.127 kcal/mol.
